Values of other authors, collected in patent US5484911A, “Nucleoside 5'-diphosphate conjugates of ether lipids” (Health Research, Inc., priority 1993, dated 1996).

Experiments:
[1] = test system: biosynthesis of phosphatidylinositol, phosphatidylglycerol or diphosphatidylglycerol; conditions: rat liver subcellular fractions; release of nucleoside 5'-monophosphates; cited from earlier work
respiratory syncytial = conditions: cited from earlier work
herpes simplex = conditions: cited from earlier work
[2] = test system: myelomonocytic WEHI-3B leukemia; conditions: mouse, in vivo; cited from earlier work
[3] = mouse, in vivo; cited from earlier work
[4] = test system: rat mammary carcinoma SMT-2A; conditions: alone and in combination with VP-16; cited from earlier work
[5] = test system: colon 26 carcinoma, M5076 sarcoma, Lewis lung carcinoma, and C-1300 neuroblastoma; conditions: mouse, in vivo; cited from earlier work
[6] = test system: human colorectal cancer xenografts and PSN-1 human pancreatic tumor; conditions: mouse, in vivo; cited from earlier work
[7] = test system: M5076 sarcoma and Lewis lung carcinoma; conditions: mouse, in vivo; cited from earlier work
L1210 and P388 leukemia = conditions: mouse, in vivo; cited from earlier work
L1210 leukemic cells = conditions: cited from earlier work

## AZT diphosphate diglyceride [AZTDP-DG]
[1]
  substitution for CDP-DG in phospholipid biosynthesis: can substitute to varying extents for CDP-DG

## CCCCCCCCCCCCCCCCCCCCCCO [Example 1-Docosanol, 1-Docosanol]
Respiratory syncytial
  respiratory syncytial viral replication: inhibits herpes simplex and respiratory syncytial viral replication
Herpes simplex
  herpes simplex viral replication: inhibits herpes simplex and respiratory syncytial viral replication

## CCCCCCCCCCCCCCCCCCSCC(COP(=O)(O)OP(=O)(O)OC[C@H]1O[C@@H](n2ccc(N)nc2=O)[C@@H](O)[C@@H]1O)OC(=O)CCCCCCCCCCCCCCC (mixture of isomers) [Cytoros]
[2]
  efficacy compared with ara-CDP-L-dipalmitin: considerably higher efficacy than ara-CDP-L-dipalmitin
[3]
  plasma ara-C concentration and intracellular retention of ara-CTP compared to ara-C: more prolonged plasma ara-C concentration and intracellular retention of ara-CTP
[4]
  primary and lymph node metastasis: markedly retarded both primary and lymph node metastasis
[5]
  therapeutic activity: rather broad spectrum of therapeutic activity
[6]
  antitumor activity: strong antitumor activity
[7]
  antimetastatic activity: displayed antimetastic activity
L1210 and P388 leukemia
  effectiveness among ara-C conjugates tested: the most effective of those tested
L1210 leukemic cells
  cytotoxicity to L1210 leukemic cells compared to normal mouse bone marrow cells: selective cytotoxicity to L1210 leukemic cells
